Results reported in PMC6411751, “Use of machine learning to identify novel, behaviorally active antagonists of the insect odorant receptor co-receptor (Orco) subunit” (Scientific Reports, 2019).

biological target: T1, Agam\Orco (Anopheles gambiae, UniProt Q7QCC7); assay: cell-based; assay type: cell-based; details: not given
T1 construct: expressed in transfected cells; host or cells: Xenopus laevis oocytes injected with capped cRNA (plasmid pT7TS, gift of L. Zwiebel)
T1 sequence (Q7QCC7 1-478): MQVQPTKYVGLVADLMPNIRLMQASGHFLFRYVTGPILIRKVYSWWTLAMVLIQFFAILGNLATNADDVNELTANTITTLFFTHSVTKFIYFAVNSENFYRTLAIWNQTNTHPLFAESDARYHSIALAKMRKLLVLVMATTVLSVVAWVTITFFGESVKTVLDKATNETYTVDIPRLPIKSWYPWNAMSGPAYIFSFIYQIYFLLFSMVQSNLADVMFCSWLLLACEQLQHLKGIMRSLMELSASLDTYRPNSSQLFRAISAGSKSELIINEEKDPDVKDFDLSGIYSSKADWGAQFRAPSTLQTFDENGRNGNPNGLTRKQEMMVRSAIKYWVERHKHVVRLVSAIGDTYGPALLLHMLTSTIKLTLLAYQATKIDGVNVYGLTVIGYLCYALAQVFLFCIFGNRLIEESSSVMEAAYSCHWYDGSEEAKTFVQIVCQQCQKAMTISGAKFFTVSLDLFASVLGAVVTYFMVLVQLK
Description: A 2 hr incubation with collagenase B (Roche) was used to remove follicle cells from oocytes. Capped cRNA for Agam\Orco was synthesized using mMessage mMachine kits (Thermo Fisher Scientific). 25 ng of cRNA was injected into stage V–VI oocytes, followed by a 2–5 day incubation at 18 °C in Barth’s saline (in mM: 88 NaCl, 1 KCl, 2.4 NaHCO3, 0.3 CaNO3, 0.41 CaCl2, 0.82 MgSO4, 15 HEPES, pH 7.4, and 0.05 g/L tetracycline, 0.05 g/L ciprofloxacin, 0.1 g/L amikacin) prior to electrophysiological recordings.
An automated parallel electrophysiology system (OpusExpress 6000 A, Molecular Devices) was used to record Orco agonist (OLC12) or odorant induced currents under two-electrode voltage clamp. Oocytes were perfused with ND96 (in mM: 96 NaCl, 2 KCl, 1 CaCl2, 1 MgCl2, 5 HEPES, pH 7.4). DMSO was used to prepare 1 M or 100 mM stock solutions of test compounds, which were then diluted in ND96 on the day of the experiment. Compounds were applied at a flow rate of 1.0 mL/min, with extensive washing in ND96 at 4.6 mL/min between applications. Micropipettes with resistances of 0.2–2.0 MΩ were filled with 3 M KCl. The holding potential was −70 mV. Current responses were filtered (4-pole, Bessel, low pass) at 20 Hz (−3 db) and sampled at 100 Hz. OpusXpress 1.1 software (Molecular Devices) was used to capture and store current responses.
To measure antagonist activity at Orco, Agam\Orco was activated by the Orco agonist OLC12[34]. […] The current response to OLC12 in the presence of antagonist candidate was compared to the mean of the preceding two responses to OLC12 alone and presented as a percentage[34],[35]. This value was then normalized to the value obtained when the assay was run in the absence of antagonist candidate (sham).
During development of the training panel (Fig. 2, Tables S1 and S2), all compounds not previously known to be Orco antagonists were tested at a concentration of 3 mM. […] Concentration-inhibition curves were constructed for all compounds eliciting >20 percent inhibition at 3 mM. The same concentration and criteria were used during screening of predicted actives (Fig. 4D) and predicted inactives (Fig. 5C).
Clampfit 9.1 software (Molecular Devices) was used to perform initial analysis of electrophysiological data. Prism 7 (Graphpad) was used for curve fitting. Concentration-inhibition data were fit to the equation: I = Imax/(1 + (X/IC50)^n) where I represents the current response at a given concentration of inhibitor, X; Imax is the maximal response in the absence of inhibitor; IC50 is the concentration of inhibitor present that allows a half maximal response from OLC12; n is the apparent Hill coefficient.

Row | Compound | IC50 [µM] | Orco antagonist activity | more potent than BMP [fold] | inhibition of Agam\Orco (OLC12 response) at 3 mM [%]
1 | c1ccc(CNc2ccccc2)cc1 [n-benzylaniline] | 114 ± 12 | – | – | –
2 | CCc1cccc(CC)c1O [2,6-diethylphenol] | 86 ± 17 | – | – | –
3 | CC(C)c1cccc(C(C)C)c1O [propofol, 2,6-diisopropylphenol, reference compound] | 47 ± 3 | has Orco antagonist activity | – | –
4 | CC(C)(C)c1ccccc1O [2-tert-butylphenol] | 32 ± 5 | – | – | –
5 | Cc1ccc(O)c(C(C)(C)C)c1 [2-tert-butyl-4-methylphenol] | – | – | 2 | –
6 | CC(C)c1cccc(C(C)(C)C)c1O [2-tert-butyl-6-isopropylphenol] | 50 ± 7 | – | – | –
7 | CC(C)c1ccc(CO)cc1 [4-isopropylbenzyl alcohol] | 605 ± 116 | – | – | –
8 | CCCCO [1-butanol] | – | – | – | ≤ 20
9 | CC(C)(C)c1ccc(O)c(C(C)(C)C)c1 [2,4-di-tert-butylphenol] | 15 ± 1 | – | 3 | –

same assay, conditions: 1 mM compound, 30 µM OLC12

Row | Compound | inhibition of OLC12 activation
10 | CCN(CC)C(=O)c1cccc(C)c1 [DEET, N,N-diethyl-m-toluamide, reference compound] | little or no inhibition

same assay, conditions: 3 mM compound, 30 µM OLC12

Row | Compound | inhibition of Agam\Orco (OLC12 response) at 3 mM [%]
11 | c1cscn1 [thiazole] | ≤ 20
12 | CN(C)C [trimethylamine] | ≤ 20

same assay, conditions: Agam\Orco IC50 compared with 3I6MC

Row | Compound | change in potency relative to 3I6MC
13 | Cc1ccc(C(C)C)c(O)c1 [thymol] | slightly decreased potency

same assay, conditions: Agam\Orco IC50 compared with BMP

Row | Compound | change in potency relative to BMP | loss of potency relative to BMP [fold]
14 | CC(C)(C)c1cccc(C(C)(C)C)c1O [2,6-di-tert-butylphenol] | slightly decreased potency | –
15 | CCc1cccc(CC)c1O [2,6-diethylphenol] | slightly decreased potency | –
16 | Cc1cc(C)c(O)c(C)c1 [2,4,6-trimethylphenol] | – | 4.5
17 | CC(C)(C)c1ccccc1O [2-tert-butylphenol] | slight increase in potency | –
18 | CC(C)c1cccc(C(C)(C)C)c1O [2-tert-butyl-6-isopropylphenol] | no effect on potency | –

same assay, conditions: Table 2; inhibition of Agam\Orco activated by 30 µM OLC12; mean ± SEM (n = 3–9); read-out: IC50

Row | Compound | IC50 [µM]
19 | CC(C)(C)c1cccc(C(C)(C)C)c1O [2,6-di-tert-butylphenol] | 92 ± 9
20 | Cc1cc(C)c(O)c(C)c1 [2,4,6-trimethylphenol] | 212 ± 29
21 | CC(C)c1ccc(O)c(C(C)C)c1 [C00014, 2,4-diisopropylphenol] | 37 ± 7
22 | Cc1ccc(O)c(C(C)(C)C)c1 [2-tert-butyl-4-methylphenol] | 25 ± 3

same assay, conditions: Table S1; training actives; Agam\Orco activated by 30 µM OLC12; mean ± SEM (n = 3-8); read-out: IC50

Row | Compound | IC50 [µM]
23 | Cc1ccccc1 [toluene] | 1600 ± 243
24 | CC1CCC(C(C)C)C(O)C1 (single isomer, unassigned; (-)) [(-)menthol] | 433 ± 78
25 | CCOC(=O)C=Cc1c(Cl)cccc1Cl [ethyl 2,6-dichlorocinamate] | 93 ± 11
26 | CCCCCSC [amyl methyl sulfide] | 915 ± 77
27 | CC(C)=CCC[C@@H](C)CC=O [(R)-(+)-citronellal] | 651 ± 58
28 | C#CC(O)CCCCC (centres unmarked) [1-octyn-3-ol] | 870 ± 60
29 | Brc1ccccc1 [bromobenzene] | 1160 ± 143
30 | CC1(C)C(=O)[C@@]2(C)CC[C@H]1C2 [L-fenchone] | 1330 ± 105
31 | COc1ccc(OC)cc1 [1,4-dimethoxybenzene] | 1100 ± 172
32 | C=C(C)C1CCC(C)C(O)C1 (single isomer, unassigned; (-)) [(-)-dihydrocarveol] | 818 ± 81
33 | CC1=NC(C)SC1C (centres unmarked) [2,5-dihydro-2,4,5-trimethylthiazoline] | 13000 ± 2400
34 | O=C1CCCCCCCCCC1 [cycloundecanone] | 366 ± 28
35 | CCCCCCC1CCC(=O)O1 (centres unmarked) [γ-decalactone] | 948 ± 153
36 | (−)-terpinen-4-ol | 678 ± 78
37 | (+)-isopulegol | 1370 ± 285
38 | O=C(/C=C/c1ccccc1)OCc1ccccc1 [benzyl cinnamate] | 492 ± 64
39 | CCCC=O [butyraldehyde] | 3000 ± 333
40 | C=C(C)C1CC=C(C)[C@@H](O)C1 (single isomer, unassigned; (-)) [(-)-carveol] | 1030 ± 117
41 | C=C(C)[C@@H]1CC[C@@H](C)C(=O)C1 [(+)-dihydrocarvone] | 1240 ± 219
42 | CCOC(=O)c1ccccc1 [ethyl benzoate] | 569 ± 44
43 | O=Cc1ccc(O)cc1 [4-hydroxybenzaldehyde] | 3620 ± 449
44 | NCCc1c[nH]c2ccccc12 [tryptamine] | 48 ± 10
45 | Cc1ccc(CNC(=O)c2cccs2)cc1 [OX3a, N-(4-methylbenzyl)-2-thiophenecarboxamide, reference compound] | 202 ± 15
46 | c1ccsc1 [thiophene] | 2670 ± 147

Row | Compound | IC50 [µM]
47 | CCCCC1Cc2ccccc2C1=O (centres unmarked) [2-butyl-1-indanone] | 289 ± 28
48 | CCN(CC)C(=O)c1cccc(C)c1 [DEET, N,N-diethyl-m-toluamide, reference compound] | 4480 ± 369
49 | CC(C=O)=Cc1ccccc1 [α-methyl cinnamaldehyde] | 187 ± 40
50 | C=C(C)[C@H]1CC=C(C)C(=O)C1 [(S)-carvone] | 1280 ± 92
51 | Cc1ccc(C(C)C)c(O)c1 [thymol] | 61 ± 10
52 | COc1nccnc1CC(C)C [2-isobutyl-3-methoxypyrazine] | 1020 ± 83
53 | O=Cc1ccc2c(c1)OCO2 [piperonal] | 2570 ± 244
54 | COc1ccccc1 [anisole] | 1170 ± 243
55 | CC1(O)CSC(C)(O)CS1 (centres unmarked) [2,5-dimethyl-2,5-dihydroxy-1,4-dithiane] | 4860 ± 1270
56 | CC1CC[C@H](C(C)C)[C@@H](O)C1 (single isomer, unassigned; (+)) [(+)menthol] | 443 ± 72
57 | CC12CCC(CC1)C(C)(C)O2 [eucalyptol] | 2960 ± 255
58 | Cc1cc(C)c(NC(=O)c2cccs2)c(C)c1 [OX1L, N-mesityl-2-thiophenecarboxamide, reference compound] | 58 ± 10
59 | CC(C)CCOC(=O)Cc1ccccc1 [isoamyl phenylacetate] | 692 ± 66
60 | COC(C)=O [methyl acetate] | 1640 ± 179
61 | CC(C)OC(=O)C=Cc1ccccc1 [isopropyl cinnamate] | 153 ± 14
62 | COc1ccccc1OC [veratrole] | 5420 ± 845
63 | COc1ccccc1O [guaiacol] | 4030 ± 654
64 | SCCCCCCCCCS [1,9-nonanedithiol] | 1600 ± 299
65 | O=CCCc1ccccc1 [hydrocinnamaldehyde] | 220 ± 24
66 | CCCCc1ccc(NC(=O)CSc2nnc(-c3ccccn3)n2CC)cc1 [OLC15, N-(4-butylphenyl)-2-((4-Et-5-(2-pyridinyl)-4H-1,2,4-triazol-3-yl)thio)acetamide, reference compound] | 10 ± 2
67 | C=CCc1ccc(OC)c(OC)c1 [methyl eugenol] | 525 ± 40
68 | CCCCCCOC(C)=O [hexyl acetate] | 841 ± 121
69 | Cc1cccc(O)c1 [m-cresol] | 1280 ± 238

same assay, conditions: read-out: inhibition of Agam\Orco (OLC12 response) at 3 mM; 3 mM compound, 30 µM OLC12

Row | Compound | inhibition at 3000 µM [%]
70 | CCCCC/C=C\C/C=C\CCCCCCCC(=O)O [linoleic acid] | ≤ 20
71 | CCC(=O)C(C)=O [2,3-pentanedione] | ≤ 20
72 | O=C(O)CCCCCBr [6-bromohexanoic acid] | ≤ 20
73 | CC1=CC(=O)CC(C)(C)C1 [isophorone] | ≤ 20
74 | O=C(O)CCCCBr [5-bromovaleric acid] | ≤ 20
75 | OC[C@H]1OC(O)[C@H](O)[C@@H](O)[C@@H]1O (some centres unmarked) [glucose] | ≤ 20
76 | N[C@@H](Cc1ccccc1)C(=O)O [phenylalanine] | ≤ 20
77 | O=C1CCCC1 [cyclopentanone] | ≤ 20
78 | Oc1ccccc1O [catechol] | ≤ 20
79 | c1cnccn1 [pyrazine] | ≤ 20
80 | N[C@@H](Cc1c[nH]cn1)C(=O)O [histidine] | ≤ 20
81 | CC1=CCC2CC1C2(C)C (stereo not drawn) [α-pinene] | ≤ 20
82 | N[C@@H](Cc1c[nH]c2ccccc12)C(=O)O [tryptophan] | ≤ 20
83 | Cc1ccnc2ccccc12 [4-methylquinoline] | ≤ 20
84 | CCOC(=O)CC [ethyl propionate] | ≤ 20
